Source: US20240059700A1, “NOVEL DIACYLGLYCERIDE O-ACYLTRANSFERASE 2 INHIBITORS” (Merck Sharp & Dohme LLC, priority 2020, published 2024)

Target: human DGAT2 (hDGAT2) (Homo sapiens (Human), UniProt Q96PD7)
Experiment: DGAT2 Enzymatic Activity Assay
Format: biochemical
Conditions: membrane prep of Sf-9 insect cells expressing hDGAT2; 13C18-triolein product by LC/MS/MS
Experimental: Sf-9 insect cells were maintained in Grace's insect cell culture medium with 10% heated-inactivated fetal bovine serum, 1% Pluronic F-68 and 0.14 μg/ml Kanamycine sulfate at 27° C. in a shaker incubator. After infection with untagged baculovirus expressing human DGAT2 (hDGAT2) at multiplicity of infection (MOI) 3 for 48 hours, cells were harvested. Cell pellets were suspended in buffer containing 10 mM Tris-HCl pH 7.5, 1 mM EDTA, 250 mM sucrose and Complete Protease Inhibitor Cocktail (Sigma Aldrich), and sonicated on ice. Cell debris were removed by centrifugation at 2000×g for 15 minutes. Membrane fractions were isolated by ultracentrifugation (100,000×g), resuspended in the same buffer, and frozen (−80° C.) for later use. The protein concentration was determined with the Pierce™ BCA Protein Assay Kit (Thermo Fisher Scientific). Expression of protein levels was analyzed by immunoblotting with rabbit anti-DGAT2 antibody (Abcam, ab102831) and donkey anti-rabbit IgG H&L Alexa Fluor® 647 (Abcam, ab150075) followed by detection using Typhoon FLA9000 (GE Healthcare).
LC/MS/MS analyses were performed using Thermal Fisher's LX4-TSQ Vantage system. This system consists of an Agilent binary high-performance liquid chromatography (HPLC) pumps and a TSQ Vantage triple quadrupole MS/MS instrument. For each sample, 2 μL samples from the top organic layer of in-plate liquid-liquid extraction were injected onto a Thermo Betabasic C4 column (2.1 mm×20 mm, 5 μm particle size). The samples were then eluted using the following conditions; mobile phase: Isopropanol: acetonitrile/10 mM ammonium formate=50/35/15 (v/v/v), flow rate: 0.8 mL/min, temperature: 25° C. Data was acquired in positive mode using a heated electrospray ionization (HESI) interface. The operational parameters for the TSQ Vantage MS/MS instrument were a spray voltage of 3000 V, capillary temperature of 280° C., vaporizer temperature 400° C., sheath gas 45 arbitrary unit, Aux gas 10 arbitrary units, S-lens 165 and collision gas 1.0 mTorr. […] (SRM) chromatograms of ^13C18-triolein (Q1: 920.8>Q3:621.3) and internal standard ^13C21-triolein (Q1: 923.8>Q3:617.3) were collected for 33 sec. The peak area was integrated by Xcalibur Quan software. The ratio between the ^13C18 triolein generated in the reaction and spiked in internal standard ^13C21-triolein was used to generate percentage inhibition and IC50 values. Compound percentage inhibition was calculated by the following formula: Inhibition %=1−[(compound response−low control)/(high control−low control)]×100%. Potent compounds were titrated and IC50 were calculated by 4 parameter sigmoidal curve fitting formula.
DGAT2 activity was determined by measuring the amount of enzymatic product ^13C18-triolein (^13C-1,2,3-Tri(cis-9-octadecenoyl)glycerol) using the membrane prep mentioned above. The assay was carried out in ABgene 384-well assay plates in a final volume of 25 μL at rt. The assay mixture contained the following: assay buffer (100 mM Tris·Cl, pH 7.0, 20 mM MgCl2, 5% ethanol), 25 μM of diolein, 5 μM of ^13C oleoyl-CoA and 8 ng/μL of DGAT2 membrane.

Sequence of human DGAT2 (hDGAT2) (Q96PD7 whole entry): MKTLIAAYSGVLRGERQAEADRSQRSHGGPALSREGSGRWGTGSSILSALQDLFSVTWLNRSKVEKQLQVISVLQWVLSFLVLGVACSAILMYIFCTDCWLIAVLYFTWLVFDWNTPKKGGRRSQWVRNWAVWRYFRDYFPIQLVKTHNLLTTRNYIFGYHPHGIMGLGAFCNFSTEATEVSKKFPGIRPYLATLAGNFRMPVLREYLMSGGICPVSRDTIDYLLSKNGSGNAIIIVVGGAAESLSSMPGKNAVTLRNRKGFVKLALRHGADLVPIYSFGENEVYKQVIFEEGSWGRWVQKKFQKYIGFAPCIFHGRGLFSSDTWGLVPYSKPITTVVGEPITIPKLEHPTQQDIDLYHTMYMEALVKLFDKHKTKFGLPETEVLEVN

SMILES	IC50 [nM]
C[C@]1(NC(=O)c2cnc3c(-c4cccc(OC(F)F)c4)nn(-c4ncc(F)cn4)c3c2)CCS(=O)(=O)C1 [Example 3, (S)-3-(3-(difluoromethoxy)phenyl)-1-(5-fluoropyrimidin-2-yl)-N-(3-methyl-1,1-dioxidotetrahydrothiophen-3-yl)-1H-pyrazolo[4,3-b]pyridine-6-carboxamide]	57
C[C@]1(NC(=O)c2cc3c(cn2)c(-c2cncc(OC(F)F)c2)nn3-c2ccc(F)cc2)CCS(=O)(=O)C1 [Example 6, (S)-3-(5-(difluoromethoxy)pyridin-3-yl)-1-(4-fluorophenyl)-N-(3-methyl-1,1-dioxidotetrahydrothiophen-3-yl)-1H-pyrazolo[4,3-c]pyridine-6-carboxamide]	89
CN(C)[C@H]1COC[C@@H]1NC(=O)c1cnc2c(-c3cccc(OC(F)F)c3)cn(-c3ncc(F)cn3)c2c1 [Example 8, 3-(3-(difluoromethoxy)phenyl)-N-((3R,4R)-4-(dimethylamino)tetrahydrofuran-3-yl)-1-(5-fluoropyrimidin-2-yl)-1H-pyrrolo[3,2-b]pyridine-6-carboxamide]	119
C[C@]1(NC(=O)c2ccc3c(-c4ccccc4Cl)cn(-c4ccc(F)cc4)c3n2)CCS(=O)(=O)C1 [Example 10, (S)-3-(2-chlorophenyl)-1-(4-fluorophenyl)-N-(3-methyl-1,1-dioxidotetrahydrothiophen-3-yl)-1H-pyrrolo[2,3-b]pyridine-6-carboxamide]	3700
C[C@@]1(NC(=O)c2cnc3c(-c4ccccc4Cl)cn(-c4ccc(F)cc4)c3c2)CCS(=O)(=O)C1 [Example 12, (R)-3-(2-chlorophenyl)-1-(4-fluorophenyl)-N-(3-methyl-1,1-dioxidotetrahydrothiophen-3-yl)-1H-pyrrolo[3,2-b]pyridine-6-carboxamide]	356
C[C@]1(NC(=O)c2cc3c(cn2)c(-c2cccc(OC(F)F)c2)cn3-c2ccc(F)cc2)CCS(=O)(=O)C1 [Example 15, (S)-3-(3-(difluoromethoxy)phenyl)-1-(4-fluorophenyl)-N-(3-methyl-1,1-dioxidotetrahydrothiophen-3-yl)-1H-pyrrolo[3,2-c]pyridine-6-carboxamide]	23
CC(C)NC(=O)c1cnc2c(-c3cccc(OC(F)F)c3)cn(-c3ncc(F)cn3)c2c1 [Example 16, 3-(3-(difluoromethoxy)phenyl)-1-(5-fluoropyrirnidin-2-yl)-N-isopropyl-1H-pyrrolo[3,2-b]pyridine-6-carboxamide]	209
CC(CS(C)(=O)=O)NC(=O)c1cnc2c(-c3cccc(OC(F)F)c3)cn(-c3ncc(F)cn3)c2c1 (centres unmarked) [Example 17, 3-(3-(difluoromethoxy)phenyl)-1-(5-fluoropyrimidin-2-yl)-N-(1-(methylsulfonyl)propan-2-yl)-1H-pyrrolo[3,2-b]pyridine-6-carboxamide]	72
CC(C)(NC(=O)c1cnc2c(-c3cccc(OC(F)F)c3)cn(-c3ncc(F)cn3)c2c1)C(N)=O [Example 18, N-(1-amino-2-methyl-1-oxopropan-2-yl)-3-(3-(difluoromethoxy)phenyl)-1-(5-fluoropyrimidin-2-yl)-1H-pyrrolo[3,2-b]pyridine-6-carboxamide]	3420
N[C@@H]1CCC[C@H]1NC(=O)c1cnc2c(-c3cccc(OC(F)F)c3)cn(-c3ncc(F)cn3)c2c1 [Example 21, N-((1R,2R)-2-aminocyclopentyl)-3-(3-(difluoromethoxy)phenyl)-1-(5-fluoropyrimidin-2-yl)-1H-pyrrolo[3,2-b]pyridine-6-carboxamide]	6530
N[C@@H]1CCC[C@@H]1NC(=O)c1cnc2c(-c3cccc(OC(F)F)c3)cn(-c3ncc(F)cn3)c2c1 [Example 23, N-((1S,2R)-2-aminocyclopentyl)-3-(3-(difluoromethoxy)phenyl)-1-(5-fluoropyrimidin-2-yl)-1H-pyrrolo[3,2-b]pyridine-6-carboxamide]	173

The next lines start with the values.

IC50 [nM]	SMILES
150	CC(C)n1nc(-c2cccc(OC(F)F)c2)c2ncc(C(=O)NC3(C(C)O)CCOC3)cc21 (single isomer, unassigned) [Example 50d, 3-(3-(difluoromethoxy)phenyl)-N-(3-(1-hydroxyethyl)tetrahydrofuran-3-yl)-1-isopropyl-1H-pyrazolo[4,3-b]pyridine-6-carboxamide]
142	Cn1nccc1-c1nn(-c2ccc(F)cc2)c2cc(C(=O)N[C@@]3(C)CCS(=O)(=O)C3)cnc12 [Example 2, (S)-1-(4-fluorophenyl)-N-(3-methyl-1,1-dioxidotetrahydrothiophen-3-yl)-3-(1-methyl-1H-pyrazol-5-yl)-1H-pyrazolo[4,3-b]pyridine-6-carboxamide]
17	CC1(NC(=O)c2cnc3c(-c4cccc(OC(F)F)c4)nn(-c4ncc(F)cn4)c3c2)CS(=O)(=O)C1 [Example 4, 3-(3-(difluoromethoxy)phenyl)-1-(5-fluoropyrimidin-2-yl)-N-(3-methyl-1,1-dioxidothietan-3-yl)-1H-pyrazolo[4,3-b]pyridine-6-carboxamide]
11	C[C@]1(NC(=O)c2cc3c(cn2)c(-c2cccc(OC(F)F)c2)nn3-c2ccc(F)cc2)CCS(=O)(=O)C1 [Example 5, (S)-3-(3-(difluoromethoxy)phenyl)-1-(4-fluorophenyl)-N-(3-methyl-1,1-dioxidotetrahydrothiophen-3-yl)-1H-pyrazolo[4,3-c]pyridine-6-carboxamide]
186	C[C@]1(NC(=O)c2cnc3c(-c4ccccc4Cl)cn(-c4ccc(F)cc4)c3c2)CCS(=O)(=O)C1 [Example 11, (S)-3-(2-chlorophenyl)-1-(4-fluorophenyl)-N-(3-methyl-1,1-dioxidotetrahydrothiophen-3-yl)-1H-pyrrolo[3,2-b]pyridine-6-carboxamide]
89	Cn1nccc1-c1cn(-c2ccc(F)cc2)c2cc(C(=O)N[C@@]3(C)CCS(=O)(=O)C3)cnc12 [Example 13, (S)-1-(4-fluorophenyl)-N-(3-methyl-1,1-dioxidotetrahydrothiophen-3-yl)-3-(1-methyl-1H-pyrazol-5-yl)-1H-pyrrolo[3,2-b]pyridine-6-carboxamide]
292	C[C@]1(NC(=O)c2cc3c(cn2)c(-c2ccccc2Cl)cn3-c2ccc(F)cc2)CCS(=O)(=O)C1 [Example 14, (S)-3-(2-chlorophenyl)-1-(4-fluorophenyl)-N-(3-methyl-1,1-dioxidotetrahydrothiophen-3-yl)-1H-pyrrolo[3,2-c]pyridine-6-carboxamide]
> 1000	O=C(NCC1CC(F)(F)C1)c1cnc2c(-c3cccc(OC(F)F)c3)cn(-c3ncc(F)cn3)c2c1 [Example 19, N-((3,3-difluorocyclobutyl)methyl)-3-(3-(difluoromethoxy)phenyl)-1-(5-fluoropyrimidin-2-yl)-1H-pyrrolo[3,2-b]pyridine-6-carboxamide]
630	N[C@@H]1COC[C@H]1NC(=O)c1cnc2c(-c3cccc(OC(F)F)c3)cn(-c3ncc(F)cn3)c2c1 [Example 22, N-((3S,4S)-4-aminotetrahydrofuran-3-yl)-3-(3-(difluoromethoxy)phenyl)-1-(5-fluoropyrimidin-2-yl)-1H-pyrrolo[3,2-b]pyridine-6-carboxamide]
153	Cn1nc(-c2cccc(OC(F)F)c2)c2ncc(C(=O)NC3(C)CS(=O)(=O)C3)cc21 [Example 26, 3-(3-(difluoromethoxy)phenyl)-1-methyl-N-(3-methyl-1,1-dioxidothietan-3-yl)-1H-pyrazolo[4,3-b]pyridine-6-carboxamide]
111	CCn1nc(-c2cccc(OC(F)F)c2)c2ncc(C(=O)NC3(C)CS(=O)(=O)C3)cc21 [Example 27, 3-(3-(difluoromethoxy)phenyl)-1-ethyl-N-(3-methyl-1,1-dioxidothietan-3-yl)-1H-pyrazolo[4,3-b]pyridine-6-carboxamide]
29	CC(C)Cn1nc(-c2cccc(OC(F)F)c2)c2ncc(C(=O)NC3(C)CS(=O)(=O)C3)cc21 [Example 28, 3-(3-(difluoromethoxy)phenyl)-1-isobutyl-N-(3-methyl-1,1-dioxidothietan-3-yl)-1H-pyrazolo[4,3-b]pyridine-6-carboxamide]
